In patent US20200237743A1, “CRAC CHANNEL MODULATORS FOR TREATING ESOPHAGEAL CANCER” (Rhizen Pharmaceuticals SA, priority 2017, published 2020):

Assays:
[1] = tested on: NF-κB/p65 nuclear translocation in KYSE-150 cells; experiment: NF-κB/p65 nuclear translocation upon serum stimulation in ESCC cells; assay type: cell-based, human; conditions: 10% FBS stimulation 1 h (about 84% without treatment)
Method: (§1) Compound (A) was tested on blocking nuclear factor kappa B (NF-κB/p65) nuclear translocation upon serum stimulation in ESCC cells. KYSE-150 cells were starved in medium supplemented with 0.1% FBS for 24 h. […] Upon 10% FBS stimulation for 1 h, NF-κB/p65 appeared to translocate to nuclei evidenced by co-localization of nuclei in about 84% of KYSE-150 cells.

KYSE-150 = experiment: Anti-proliferative effect in human ESCC cell lines (MTT assay); assay type: cell-based; conditions: KYSE-150, MTT, 48-72 h incubation, read-out: IC50, cell viability
Method: (§2) ESCC cell lines (KYSE-30, KYSE-150, KYSE-790, and KYSE-70) were plated in 96-well plates and incubated with desired concentrations of Compound A for 48-72 h. At the end of the incubation period, MTT (3-(4,5-dimethylthiazol-2-yl)-2,5-diphenyltetrazolium bromide) was added. The plate was placed on a shaker for 5 min to mix the formazan and the optical density at 560 nm was measured on a spectrophotometer. Data were plotted using Graphpad Prism for calculation of the IC50 concentrations.

KYSE-30 = experiment: as above; assay type: cell-based; conditions: KYSE-30, MTT, 48-72 h incubation, read-out: IC50, cell viability
Method: as §2

KYSE-70 = experiment: as above; assay type: cell-based; conditions: KYSE-70, MTT, 48-72 h incubation, read-out: IC50, cell viability
Method: as §2

KYSE-780 = experiment: as above; assay type: cell-based; conditions: KYSE-780, MTT, 48-72 h incubation, read-out: IC50, cell viability
[2] = tested on: KYSE-150 mouse xenograft model; experiment: Anti-tumor effect in esophageal cancer xenograft; assay type: in vivo; conditions: 20 mg/kg intra-peritoneal every 2 days for 2 weeks, KYSE-150 xenograft mice
Method: (§3) The anti-tumor effect of Compound (A) was determined in a KYSE-150 mouse xenograft model. Briefly, 10^6 cells were injected into the flank region. Mice were randomized according to body weight into two groups of five. A week after tumor cell injection, mice either received the vehicle or intra-peritoneal administration of Compound (A) at 20 mg/kg every 2 days for a 2 week period. At the end of the study period, animals were sacrificed and the tumors harvested.

[3] = tested on: NF-κB/p65 in tumor tissues; experiment: Immunofluorescence staining of xenograft tumor tissues (nuclear NF-κB/p65, cyclin D1); assay type: in vivo, mouse
Method: as §3, §1

Structure (SMILES) | number of cells with NF-κB/p65 nuclear localization ([1]; 20 μM) [%] | IC50 (KYSE-150) [nM] | IC50 (KYSE-30) [nM] | IC50 (KYSE-70) [nM] | IC50 (KYSE-780) [nM] | tumor growth compared to vehicle treated control group [2] | number of cells with NF-κB/p65 nuclear localization ([1]; 10 μM) [%] | nuclear NF-κB/p65 positive cells number in tumor tissues ([3]; immunofluorescence of tumor tissues, 41% in control animals) [%] | expression of cyclin D1 in tumors compared with control group animals ([3]; tumors removed from treated animals)
Cc1nnsc1C(=O)Nc1ccc(-n2nc(C(F)(F)F)cc2C(F)(F)F)cc1 [BTP-2, reference compound] | 8.53 | – | – | – | – | – | – | – | –
O=C(Cc1ccc2ncccc2c1)Nc1ccc(-n2nc(C3CC3)cc2C2CC2)cc1 [Compound (A), N-(4-(3,5-dicyclopropyl-1H-pyrazol-1-yl)phenyl)-2-(quinolin-6-yl)acetamide] | – | 1400 | 1200 | 1400 | 5500 | significantly reduced tumor growth | 10.52 | 9 | dramatically reduced
